Assay results as given in patent US20260207614A1, “IRAK4 DEGRADERS AND USES THEREOF” (Kymera Therapeutics, Inc., priority 2022, published 2026).
Entries after “also recorded” stand apart in the source; their conditions may differ. Like-named read-outs stand apart in the source and are kept apart here.

How the values were obtained:
IRAK4 [1] = target: T1, IRAK4 (Rattus norvegicus, UniProt A0A8I6G1H3); experiment: In vitro IRAK4 degradation, rat splenocytes; assay type: cell-based; conditions: read-out: DC50 (IRAK4 degradation)
T1 construct: endogenous in cells; host or cells: rat splenocytes

IRAK4 [2] = target: T2, IRAK4 (Canis lupus familiaris, UniProt A0A8I3S726); experiment: In vitro IRAK4 degradation, dog PBMCs; assay type: cell-based; conditions: read-out: DC50 (IRAK4 degradation)
T2 construct: endogenous in cells; host or cells: dog PBMCs
T2 sequence (A0A8I3S726 1-460): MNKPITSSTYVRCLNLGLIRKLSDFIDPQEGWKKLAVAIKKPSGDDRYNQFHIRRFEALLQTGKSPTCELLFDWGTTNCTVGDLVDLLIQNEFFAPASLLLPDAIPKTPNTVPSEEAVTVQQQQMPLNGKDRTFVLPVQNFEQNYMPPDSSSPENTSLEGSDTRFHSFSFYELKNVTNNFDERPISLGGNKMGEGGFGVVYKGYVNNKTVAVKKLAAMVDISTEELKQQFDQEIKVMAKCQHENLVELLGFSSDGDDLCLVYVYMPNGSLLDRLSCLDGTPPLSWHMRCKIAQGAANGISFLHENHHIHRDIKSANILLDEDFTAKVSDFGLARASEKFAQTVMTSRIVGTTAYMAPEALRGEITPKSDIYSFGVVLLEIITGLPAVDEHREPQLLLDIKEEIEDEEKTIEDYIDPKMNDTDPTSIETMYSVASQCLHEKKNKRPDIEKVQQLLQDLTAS

IRAK4 [3] = experiment: In vitro IRAK4 degradation, monkey PBMCs; assay type: cell-based
[4] = tested on: TLR agonist (lipopolysaccharide and R848) and IL-1β-induced proinflammatory cytokine production; experiment: In vitro cytokine release assays in PBMCs; assay type: cell-based; conditions: LPS
[5] = tested on: MSU-crystal induced (TLR 2/4-dependent) inflammation; experiment: Mouse air pouch model of MSU-crystal induced inflammation; assay type: in vivo
Description: Overall, efficacy was associated with achieving at least 80% or more IRAK4 knockdown in associated tissues in the model systems.

Solubility = assay type: physicochemical
Description: Compound A can be classified tentatively as a BCS II compound.

[6] = Plasma protein binding and red blood cell partitioning; assay type: in vitro ADME, nonclinical species and humans
[7] = Distribution studies in rats; assay type: in vivo
Description: In in vivo pharmacokinetic (PK) studies conducted in rats, dogs, and monkeys.

CYP2C19 = CYP2C19 (Homo sapiens, UniProt P33261); experiment: In vitro drug-drug interaction study, CYP2C19; assay type: in vitro ADME
Description: Metabolites generated in liver microsomes from humans were also detected in those from rat, dog, and monkey. In the in vitro drug-drug interaction studies.

[8] = tested on: LPS (TLR4)-stimulated cytokine induction in whole blood; experiment: Phase 1 SAD ex vivo LPS-stimulated cytokine induction in whole blood; set-up: species or system human; conditions: 24-48 hours, Cohort 7
[9] = Phase 1 MAD Compound A concentration in skin; assay type: in vivo; conditions: human, oral, Day 14, once daily dosing, read-out: Ctrough (pre-dose) levels in skin relative to plasma
[10] = tested on: ex vivo proinflammatory cytokine induction by R848 and LPS in whole blood; experiment: Phase 1 MAD ex vivo cytokine induction by R848 and LPS in whole blood; set-up: species or system human; conditions: daily up to about 200 mg, Day 7-14, FIG. 16
Description: In some embodiments, the cytokines include IFN-γ, IL-12, IL-1β, IL-10, IL-6, TNF-α, IL-8, IL-17, and IL-23.

[11] = tested on: proinflammatory gene transcripts; experiment: Phase 1 Part C proinflammatory gene transcripts in skin lesions (RNAseq); assay type: in vivo, human; conditions: Day 28 compared to baseline
[12] = tested on: patients with atopic dermatitis (AD); experiment: Phase 1 Part C clinical efficacy in atopic dermatitis; assay type: in vivo, human
Description: Baseline Characteristics and Disposition: A total of 21 patients were enrolled in the trial, including 13 HS and 8 AD patients, with median age 31-40 years (13 female, 8 male). Disease severity for HS was moderate (10), severe (1) and very severe (2) and for AD was mild (1), moderate (5) and severe (2). One HS and 1 AD patient withdrew from treatment early due to personal reasons, resulting in 12 HS and 7 AD patients evaluable for PD and clinical efficacy.
AD clinical endpoints collected in the study included EASI score, Peak Pruritus NRS and vIGA-AD. Peak Pruritus NRS was used to derive Peak Pruritus NRS responder rate.

Phase 1 Part C safety = assay type: in vivo, human
[13] = 30 to 100 mg/kg twice daily, 3 days
[14] = AD, n = 7, 75 mg QD fed, highest response across Days 28 through 42
[15] = AD, n = 7, deepest reduction across Days 28 through 42

T1 sequence (A0A8I6G1H3 1-461): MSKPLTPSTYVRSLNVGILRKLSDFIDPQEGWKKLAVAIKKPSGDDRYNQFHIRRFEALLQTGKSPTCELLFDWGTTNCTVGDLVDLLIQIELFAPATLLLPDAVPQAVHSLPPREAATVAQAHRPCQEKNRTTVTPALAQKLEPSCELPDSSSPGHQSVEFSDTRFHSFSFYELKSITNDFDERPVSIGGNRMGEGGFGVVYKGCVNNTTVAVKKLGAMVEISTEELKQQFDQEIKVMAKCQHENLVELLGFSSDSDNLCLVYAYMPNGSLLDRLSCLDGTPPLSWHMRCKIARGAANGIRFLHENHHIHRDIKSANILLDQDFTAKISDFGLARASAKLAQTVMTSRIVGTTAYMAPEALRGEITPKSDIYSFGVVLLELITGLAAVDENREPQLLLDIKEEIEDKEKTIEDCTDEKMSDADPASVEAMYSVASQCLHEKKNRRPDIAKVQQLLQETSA
Sequence of CYP2C19 (P33261 whole entry): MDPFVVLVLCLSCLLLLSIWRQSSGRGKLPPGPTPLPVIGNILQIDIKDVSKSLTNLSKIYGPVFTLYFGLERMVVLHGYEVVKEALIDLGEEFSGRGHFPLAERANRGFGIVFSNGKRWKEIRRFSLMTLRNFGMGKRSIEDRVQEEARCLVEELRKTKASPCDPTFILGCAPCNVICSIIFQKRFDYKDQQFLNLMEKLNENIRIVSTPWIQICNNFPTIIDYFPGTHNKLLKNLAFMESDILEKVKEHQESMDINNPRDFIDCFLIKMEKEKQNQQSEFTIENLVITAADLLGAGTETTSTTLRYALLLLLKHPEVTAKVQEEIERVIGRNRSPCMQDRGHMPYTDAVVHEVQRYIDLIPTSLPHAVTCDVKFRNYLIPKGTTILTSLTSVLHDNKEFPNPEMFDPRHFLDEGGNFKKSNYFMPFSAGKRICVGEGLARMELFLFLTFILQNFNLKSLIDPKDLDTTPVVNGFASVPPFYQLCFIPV

Question: Which DC50 (IRAK4 [1]) does the source give for `Cn1c(=O)n([C@@H]2CCC(=O)NC2=O)c2cccc(C#CCOC3CCN(C[C@H]4CC[C@H](n5cc(NC(=O)c6cnn7ccc(N8C[C@H]9C[C@@H]8CO9)nc67)c(C(F)F)n5)CC4)CC3)c21` [Compound A, 5-((1R,4R)-2-oxa-5-azabicyclo[2.2.1]heptan-5-yl)-N-(3-(difluoromethyl)-1-((1r,4R)-4-((4-((3-(1-(2,6-dioxopiperidin-3-yl)-3-methyl-2-oxo-2,3-dihydro-1H-benzo[d]imidazol-4-yl)prop-2-yn-1-yl)oxy)piperidin-1-yl)methyl)cyclohexyl)-1H-pyrazol-4-yl)pyrazolo[1,5-a]pyrimidine-3-carboxamide] here?
Answer: The DC50 was < 10 nM.

Question: What about the DC50 (IRAK4 [2]) of the same molecule?
Answer: The DC50 was < 10 nM.

Question: What about the “IC50 values, inhibition of proinflammatory cytokine production (IL-6, TNF-α, GM-CSF, IL-8)” value [4] of the same molecule?
Answer: The value was “low nM range”.

Question: What about the “IRAK4 levels in the spleen” value [5, 13] of the same molecule?
Answer: Its value is “significantly reduced”.

Question: And the “inflammatory exudate, including neutrophils and IL-1β” value [5, 13]?
Answer: Its value is “significantly reduced”.

Question: What about the “IRAK4 knockdown in associated tissues associated with efficacy” value ([5]; murine inflammation model systems overall) of the same molecule?
Answer: Its value is “at least 80%”.

Question: And the solubility (Solubility)?
Answer: Its solubility is “low”.

Question: What about the solubility (Solubility; FaSSIF, pH 6.5, fassif, read-out: solubility in bio-relevant fluid (FaSSIF)) of the same molecule?
Answer: Its solubility is < 12000 µg/mL.

Question: What about the solubility (Solubility; aqueous media, aqueous buffer, across the physiological pH range, read-out: aqueous solubility) of the same molecule?
Answer: Its solubility is ≤ 3000 µg/mL.

Question: What about the BCS classification (Solubility; tentative) of the same molecule?
Answer: The BCS classification was “BCS II”.

Question: And the “partitioning into red blood cells” value [6]?
Answer: Its value is “did not significantly partition into red blood cells”.

Question: And the plasma protein binding ([6]; across nonclinical species and humans)?
Answer: Its plasma protein binding is “highly bound”.

Question: What about the tissue distribution [7] of the same molecule?
Answer: Its tissue distribution is “extensively distributed into tissues”.

Question: And the “time dependent inhibition (TDI) of CYP2C19” value (CYP2C19)?
Answer: The value was “potential time dependent inhibition (TDI)”.

Question: What about the “Mean Maximum Percent Change from Baseline in ex vivo IFNγ induction” value [8] of the same molecule?
Answer: Its value is −42%^.

Question: And the “Mean Maximum Percent Change from Baseline in ex vivo IL1β induction” value [8]?
Answer: Its value is −68%^1.

Question: And the “Mean Maximum Percent Change from Baseline in ex vivo IL6 induction” value [8]?
Answer: Its value is −62%^1.

Question: And the “Mean Maximum Percent Change from Baseline in ex vivo IL8 induction” value [8]?
Answer: The value was −81%^1.

Question: What about the “Mean Maximum Percent Change from Baseline in ex vivo IL10 induction” value [8] of the same molecule?
Answer: The value was −83%^1.

Question: What about the “Mean Maximum Percent Change from Baseline in ex vivo IL12 induction” value [8] of the same molecule?
Answer: The value was −35%^2.

Question: What about the “Mean Maximum Percent Change from Baseline in ex vivo IL17 induction” value [8] of the same molecule?
Answer: Its value is −43%^2.

Question: What about the “Mean Maximum Percent Change from Baseline in ex vivo TNFα induction” value [8] of the same molecule?
Answer: Its value is −42%^2.

Question: What about the Kp at 14 day [9] of the same molecule?
Answer: Its Kp at 14 day is ~10.

Question: And the “inhibition of IFN-γ” value [10]?
Answer: Its value is “up to 85%”.

Question: What about the “inhibition of IL-1β” value [10] of the same molecule?
Answer: Its value is “up to 68%”.

Question: What about the “inhibition of IL-6” value [10] of the same molecule?
Answer: The value was “up to 54%”.

Question: What about the “inhibition of IL-8” value [10] of the same molecule?
Answer: Its value is “up to 46%”.

Question: What about the “inhibition of IL-10” value [10] of the same molecule?
Answer: Its value is “up to 50%”.

Question: And the “inhibition of IL-12” value [10]?
Answer: Its value is “up to 72%”.

Question: What about the “inhibition of IL-17” value [10] of the same molecule?
Answer: Its value is “up to 46%”.

Question: And the “inhibition of TNF-α” value [10]?
Answer: Its value is “up to 59%”.

Question: What about the “downregulation of proinflammatory gene transcripts in skin lesions (IL-5, IL-31, NLRP3, CXCL1, IL-2RB)” value ([11]; AD patients) of the same molecule?
Answer: The value was > 25%.

Question: And the “downregulation of proinflammatory gene transcripts in skin lesions (IL-1b, IL-17, IL-36, IFN-g, IL-8, IL-5, GZMB, COX2)” value ([11]; HS patients)?
Answer: The value was > 25%.

Question: What about the EASI score reduction ([12]; AD patients, FIG. 26) of the same molecule?
Answer: Its EASI score reduction is “up to 37%”.

Question: What about the “Peak Pruritus NRS reduction” value ([12]; AD patients, FIG. 27) of the same molecule?
Answer: Its value is 52-63%.

Question: What about the “Peak pruritus NRS Responder rate” value ([12]; AD patients, FIG. 27) of the same molecule?
Answer: The value was 57-71%.

Question: And the “Responders: Peak Pruritis NRS, Past 24 Hours” value [12, 14]?
Answer: Its value is 71%.

Question: And the “Responders: Peak Pruritis NRS, Past Week” value [12, 14]?
Answer: Its value is 57%.

Question: And the ΔEASI [12, 15]?
Answer: Its ΔEASI is −37%.

Question: What about the “ΔPeak Pruritis NRS, Past 24 Hours” value [12, 15] of the same molecule?
Answer: Its value is −63%.

Question: What about the “ΔPeak Pruritis NRS, Past Week” value [12, 15] of the same molecule?
Answer: Its value is −52%.

Question: And the “disease severity in patient AD-3” value ([12]; FIG. 29)?
Answer: Its value is “from severe to mild”.

Question: What about the “vIGA-AD (IGA scores)” value ([12]; all AD patients) of the same molecule?
Answer: The value was “stable or improved (2 of 7)”.

Question: What about the “course of QTc prolongation with continued dosing” value (Phase 1 Part C safety) of the same molecule?
Answer: The value was “resolution to baseline by Day 28; also recorded: spontaneously resolved to baseline by Day 28”.

Question: And the serious adverse events (Phase 1 Part C safety)?
Answer: Its serious adverse events is “no serious adverse events”.

Question: And the “severity of adverse events (headache, fatigue, diarrhea)” value (Phase 1 Part C safety)?
Answer: Its value is “predominantly mild”.

Question: What about the safety and tolerability (Phase 1 Part C safety; 75 mg QD fed, 28 days, HS/AD patients) of the same molecule?
Answer: Its safety and tolerability is “generally safe and well-tolerated”.

Question: And the QTcF prolongation (Phase 1 Part C safety; Days 7-14)?
Answer: Its QTcF prolongation is “modest, non-adverse QTcF prolongation”.
